# Reference: paper PMC4186431 (Pharmacology Research & Perspectives, 2013)
# Where two headings read alike, the source gives them in different places.
# Key:
# human 5-HT7(a) receptor [1] = target: T1, human 5-HT7(a) receptor (Homo sapiens, UniProt P34969); test: Membrane homogenate [^3H]-SB-269970 radioligand binding; settings: for Hill slope nH (membrane homogenate radioligand binding): [^3H]-SB-269970 competition, best fit model (nH = 1 or variable slope)
# Experimental: Cell membrane homogenate was prepared as previously described (Varin et al. [2010]). […] After incubation, the reactions were stopped by filtration in a harvester apparatus through GF/B filters pretreated with 0.25% (w/v) poly(ethyleneimine) solution. Filters were counted in a LS-6000LL beta counter (Beckman Coulter, Inc., Fullerton, CA, USA).
# (§1) The data were analyzed using GraphPad Prism software v4.0 (GraphPad Software Inc., San Diego, CA). Receptor density (Bmax) and the dissociation constant (Kd) of the radioligand were determined by nonlinear regression curve fitting of saturation binding curves to a one-site binding (hyperbola) model. […] The IC50 values were determined by nonlinear regression curve fitting to sigmoidal dose–response or sigmoidal dose–response (variable slope) models, as indicated. […] Results are expressed as the mean values ± SEM from the number of independent experiments indicated. Prediction of log of octanol/water partition coefficient (xlog P) values were retrieved from ZINC database (http://zinc.docking.org/) (Irwin et al. [2012]).
# human 5-HT7(a) receptor [2] = target: T1, human 5-HT7(a) receptor; test: Whole-cell [^3H]-SB-269970 radioligand binding (preincubation/washout experiments); settings: for inhibition at 10 µM: read-out: Inhibition of specific binding of [^3H]-SB-269970 after preincubation and washout, 10 μmol/L, 30 min at 37°C, time t = 0 after washout
# Experimental: After incubation for 30 min at 37°C, the assay was stopped, as previously described.
# as §1
# human 5-HT7(a) receptor [3] = target: T1, human 5-HT7(a) receptor; test: cAMP assay, agonist effects in HEK-hu5-HT7 cells; assay type: cell-based; settings: 100 pmol/L to 10 μmol/L, data not shown
# Experimental: (§2) cAMP levels were quantified using the homogeneous time-resolved fluorescence (HTRF)-based cAMP dynamic kit (Cisbio, Bioassays, Codolet, France). […] In all cases, basal cAMP levels were determined in control wells in the absence of agonist. The effects of the compounds on forskolin-stimulated adenylate cyclase activity were evaluated either at a single concentration (parental HEK293 cells) or by using concentration–response curves (HEK-hu5-HT7 cells). Cells were incubated in the absence (control) or presence of the compounds, at the concentrations indicated, in assay buffer for 15 min at 37°C prior to the addition of forskolin and further incubation for 15 min. Basal cAMP levels were determined in control wells in the absence of forskolin. After proceeding with the subsequent assay steps according to the manufacturer's protocol, the fluorescence emission intensity ratio at 665/620 nm wavelength was measured in an Ultra Evolution 384 microplate reader (TECAN, Männedorf, Switzerland).
# [4] = tested on: forskolin-stimulated adenylate cyclase activity in HEK-hu5-HT7 cells; test: Forskolin-stimulated cAMP production in the presence of the compounds, HEK-hu5-HT7 cells; assay type: cell-based; settings: Homo sapiens; 10 μmol/L forskolin, continuous presence of the compounds; read-out: IC50, inhibition of forskolin-stimulated adenylate cyclase activity
# Experimental: as §2
# The data were analyzed using GraphPad Prism software v4.0 (GraphPad Software Inc., San Diego, CA). Receptor density (Bmax) and the dissociation constant (Kd) of the radioligand were determined by nonlinear regression curve fitting of saturation binding curves to a one-site binding (hyperbola) model. […] Results are expressed as the mean values ± SEM from the number of independent experiments indicated. […]
# [5] = tested on: forskolin-stimulated adenylate cyclase activity in parental HEK293 cells; test: Forskolin-stimulated cAMP production in parental HEK293 cells; assay type: cell-based, human; settings: 1 μmol/L or 10 μmol/L compound, parental HEK293 cells (Fig. 7 inset)
# Experimental: as §2
# [6] = tested on: forskolin-stimulated adenylate cyclase activity in HEK-hu5-HT7 cells; test: Forskolin-stimulated cAMP production, preincubation/washout experiments, HEK-hu5-HT7 cells; assay type: cell-based; settings: Homo sapiens; 30 min preincubation, washout, then 10 μmol/L forskolin 15 min, n = 3; read-out: IC50, irrev, forskolin-stimulated adenylate cyclase activity
# Experimental: (§3) After proceeding with the subsequent assay steps according to the manufacturer's protocol, fluorescence was measured as previously described.
# (§4) The data were analyzed using GraphPad Prism software v4.0 (GraphPad Software Inc., San Diego, CA). Receptor density (Bmax) and the dissociation constant (Kd) of the radioligand were determined by nonlinear regression curve fitting of saturation binding curves to a one-site binding (hyperbola) model. […] The IC50 values were determined by nonlinear regression curve fitting to sigmoidal dose–response or sigmoidal dose–response (variable slope) models, as indicated. […] Results are expressed as the mean values ± SEM from the number of independent experiments indicated.
# rat 5-HT7 receptors = target: rat 5-HT7 receptors; parameters: method as in Leopoldo et al. [2008]; Hedlund et al. [2010]; settings: cloned in cell lines; ref Leopoldo et al. [2008]; Hedlund et al. [2010]; cited from earlier work
# 5-HT1A [7] = settings: ref Leopoldo et al. [2008], cited from earlier work
# D2 = target: D2; parameters: method as in Leopoldo et al. [2008]; settings: ref Leopoldo et al. [2008]; cited from earlier work
# [8] = tested on: isolated guinea pig ileum; parameters: method as in Leopoldo et al. [2008]; settings: ex vivo; ref Leopoldo et al. [2008]; cited from earlier work
# [9] = tested on: wild type and 5-HT7 knock-out mice; parameters: method as in Hedlund et al. [2010]; settings: ref Hedlund et al. [2010]; cited from earlier work
# mouse hippocampal slices = tested on: mouse hippocampal slices; parameters: method as in Costa et al. [2012]; settings: ref Costa et al. [2012]; cited from earlier work
# mice = tested on: mice; parameters: method as in Adriani et al. [2012]; settings: ref Adriani et al. [2012]; cited from earlier work
# [10] = tested on: rat trigeminal nucleus caudalis; parameters: method as in Martínez-García et al. [2011]; settings: ref Martínez-García et al. [2011]; cited from earlier work
# [11] = parameters: method as in Hedlund et al. [2010]; settings: mice; ref Hedlund et al. [2010]; cited from earlier work
# human 5-HT7(a) receptor [12] = target: T1, human 5-HT7(a) receptor; test: Whole-cell [^3H]-SB-269970 radioligand binding (in the presence of the compounds)
# Experimental: as §1
# 5-HT7 receptors = tested on: 5-HT7 receptors; parameters: method as in Lacivita et al. [2012]; settings: ref Lacivita et al. [2012]; cited from earlier work
# human 5-HT7(a) receptor [13] = target: T1, human 5-HT7(a) receptor; test: 5-CT-stimulated cAMP assay in the presence of the compounds (antagonist curves, Schild analysis), HEK-hu5-HT7 cells; assay type: cell-based
# Experimental: as §2, with “forskolin.” for “forskolin. After proceeding with the subsequent assay steps according to the manufacturer's protocol, the fluorescence emission intensity ratio at 665/620 nm wavelength was measured in an Ultra Evolution 384 microplate reader (TECAN, Männedorf, Switzerland).”
# as §4
# human 5-HT7(a) receptor [14] = target: T1, human 5-HT7(a) receptor; test: 5-CT-stimulated cAMP assay, preincubation/washout experiments, HEK-hu5-HT7 cells; assay type: cell-based; settings: read-out: IC50, irrev, 5-CT-stimulated cAMP production
# Experimental: as §3, §4
# human 5-HT7 receptors [15] = target: T2, human 5-HT7 receptors (Homo sapiens, UniProt P34969); test: [^3H]-LSD binding in membrane homogenates of HEK-hu5-HT7 cells
# 5-HT1A [16] = test: Literature affinity for 5-HT1A receptors; assay type: binding; settings: reported 5-HT1A affinity versus 5-HT7 affinity of this study; ref Leopoldo et al. [2008]
# human 5-HT7 receptors [17] = target: T2, human 5-HT7 receptors; settings: estimated from experiments with behavior not compatible with classical competitive binding; ref Leopoldo et al. [2008]; cited from earlier work
# T2 sequence (P34969 1-445 isoform P34969-2): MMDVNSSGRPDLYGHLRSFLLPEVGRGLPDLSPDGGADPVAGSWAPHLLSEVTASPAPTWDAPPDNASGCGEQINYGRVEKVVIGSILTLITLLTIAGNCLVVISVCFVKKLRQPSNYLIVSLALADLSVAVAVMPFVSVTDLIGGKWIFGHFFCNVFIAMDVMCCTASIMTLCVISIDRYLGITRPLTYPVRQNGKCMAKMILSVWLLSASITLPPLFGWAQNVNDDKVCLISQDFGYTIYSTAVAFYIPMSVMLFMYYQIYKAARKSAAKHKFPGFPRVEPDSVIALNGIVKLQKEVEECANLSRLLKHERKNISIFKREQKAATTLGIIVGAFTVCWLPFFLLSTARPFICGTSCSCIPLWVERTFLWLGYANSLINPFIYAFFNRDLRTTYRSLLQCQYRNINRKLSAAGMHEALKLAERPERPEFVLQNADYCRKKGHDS
# T1 sequence (P34969 1-445 isoform P34969-2): as above
compound,measurement,setting,value
"N#Cc1ccc(CNC(=O)CCCCCN2CCN(c3ccccc3-c3ccccc3)CC2)cc1 [LP-211, N-(4-cyanophenylmethyl)-4-(2-diphenyl)-1-piperazinehexanamide]",Hill slope nH (membrane homogenate radioligand binding),human 5-HT7(a) receptor [1],1
same,inhibition at 10 µM,human 5-HT7(a) receptor [2],95.03 ± 0.47%
same,Agonist effect on cAMP levels,human 5-HT7(a) receptor [3],did not elicit any detectable increase in cAMP levels
same,IC50,[4],60.71 ± 0.48 nM
same,Effect on forskolin-stimulated cAMP production in the parental cell line,[5],no effect
same,IC50,[6],13.9 ± 3.93 nM
same,Ki,rat 5-HT7 receptors,0.58 nM
same,Ki,5-HT1A [7]; Hedlund et al. [2010],188 to 379 nM
same,Ki,D2,142 nM
same,Effect on substance P-induced contraction in isolated guinea pig ileum,[8],elicited relaxation of substance P-induced contraction
same,Effect on body temperature in wild type and 5-HT7 knock-out mice,[9],induced hypothermia in wild type but not in 5-HT7 knock-out mice
same,Effect on long-term synaptic depression induced by metabotropic glutamate receptors,mouse hippocampal slices,reverted long-term synaptic depression
same,Behavioural effect in mice (anxiety),mice,antianxiety-like effects
same,Effect on capsaicin-induced increase in Fos-like immunoreactivity,[10],able to modulate the capsaicin-induced increase
same,Metabolism in disposition studies,[11],undergoes N-dealkylation to RA-7
"c1ccc(-c2ccccc2N2CCNCC2)cc1 [RA-7, 1-(2-biphenyl)piperazine]",remaining activity at 10 µM,"human 5-HT7(a) receptor [12]; read-out: [^3H]-SB-269970 specific binding (percent of control), competitive whole-cell binding, 10 μmol/L, n = 3",0.64 ± 0.44%
same,Inhibition of specific binding of [^3H]-SB-269970 after preincubation and washout,"human 5-HT7(a) receptor [2]; 10 μmol/L, 30 min at 37°C, time t = 0 after washout",~50%
same,Duration of inhibition of [^3H]-SB-269970 binding after compound removal,"human 5-HT7(a) receptor [2]; preincubation with 10 μmol/L, recovery followed at 0, 1, 3, 6 and 24 h",at least 24 h
same,inhibition at 10 µM,human 5-HT7(a) receptor [2],54.8 ± 5.15%
same,Action at 5-HT7 receptors in HeLa cells,5-HT7 receptors,high-affinity receptor 5-HT7 antagonist
"O=C(CCCCCN1CCN(c2ccccc2-c2ccccc2)CC1)NCc1ccccc1 [MEL-9, N-benzyl-4-(2-diphenyl)-1-piperazinehexanamide]",5-HT7 affinity (membrane homogenate radioligand binding) pKi,"human 5-HT7(a) receptor [1]; 2 nmol/L [^3H]-SB-269970, HEK-hu5-HT7 membrane homogenate",7.78
same,Ki,"human 5-HT7(a) receptor [1]; 2 nmol/L [^3H]-SB-269970, HEK-hu5-HT7 membrane homogenate, 60 min 37°C, read-out: 5-HT7 affinity (membrane homogenate radioligand binding) Ki",16.6 ± 0.99 nM
same,Hill slope nH (membrane homogenate radioligand binding),human 5-HT7(a) receptor [1],1.34 ± 0.14
same,Ki,human 5-HT7(a) receptor [12]; read-out: 5-HT7 affinity (whole-cell radioligand binding) Ki,13.8 ± 0.24 nM
same,IC50,"human 5-HT7(a) receptor [2]; 30 min preincubation, washout, then 2 nmol/L radioligand",22.4 ± 7.63 nM
same,inhibition at 10 µM,human 5-HT7(a) receptor [2],97.2 ± 0.23%
same,Agonist effect on cAMP levels,human 5-HT7(a) receptor [3],did not elicit any detectable increase in cAMP levels
same,IC50,human 5-HT7(a) receptor [13],27.8 ± 6.72 nM
same,IC50,human 5-HT7(a) receptor [14],41.8 ± 18 nM
same,IC50,[4],19.3 ± 8.18 nM
same,Effect on forskolin-stimulated cAMP production in the parental cell line,[5],no effect
same,IC50,[6],11.2 ± 3.25 nM
same,"nH, displacement of [^3H]-LSD binding",human 5-HT7 receptors [15]; data not shown,1.11 ± 0.19
same,Ki,"human 5-HT7 receptors [15]; n = 3, data not shown, read-out: Ki, displacement of [^3H]-LSD binding",37.9 ± 11.3 nM
same,Fold lower affinity for 5-HT1A receptors than for 5-HT7 receptors,5-HT1A [16],9.7 fold
same,Ki,human 5-HT7 receptors [17],0.8 nM
same,Ki,5-HT1A [7],503 nM
same,Ki,D2,161 nM
